Measurements taken from article PMC11009625, “Antibiotic class with potent in vivo activity targeting lipopolysaccharide synthesis in Gram-negative bacteria” (Proceedings of the National Academy of Sciences of the …, 2024).
Values after ≈ are worked out from the molar mass of the structure shown. Read-outs that look alike come from different tables or passages of the source.

What was measured:
[1] = system: HepG2 cells; test: HepG2 cytotoxicity (72 h); format: cell-based
Method: (§1) Thermodynamic solubility was assessed by dissolving 2 to 3 mg of test compound to equilibrium in 100 mM KPO4-buffer, pH 7.4. The metabolic stability assay was performed in the presence of human and mouse liver microsomes by measurement of test compounds disappearance over time (60 min). The plasma protein binding assay, including stability estimation, was performed using the RED devices (Thermo Fisher Scientific) in the presence of human and mouse plasma. All samples from the in vitro ADME studies were quantified by liquid chromatography-triple quadrupole mass spectrometry (LC–MS/MS). The assays were performed as previously described ([36]) and the details are available in SI Appendix. Cytotoxicity was assessed by incubation of test compounds in the presence of HepG2 cells for 72 h as previously described ([37]).

[2] = Plasma protein binding (RED device); format: in vitro ADME; details: plasma (50% plasma, 50% isotonic buffer), pH 7.4; human plasma
Method: as §1
Plasma protein binding and plasma stability in human and animal plasma. Pooled,
anonymized human plasma was provided by Uppsala Academic Hospital and was collected from
two donors (non-smoking) (citric acid). In brief, 0.2 ml of the plasma (50% plasma, 50% isotonic
buffer) test solution (typically 10 μM final compound concentration) was transferred to the
membrane tube in the RED insert (ThermoFisher Scientific). 0.35 ml isotonic phosphate buffer
pH 7.4 was added to the other side of the membrane. The 96-well base plate was then sealed
with an adhesive plastic film (Scotch Pad) to prevent evaporation. The sample was incubated
with rapid rotation (900 rpm) on a Kisker rotational incubator at 37°C for 4 h to achieve
equilibrium. A stability test of the test solution was prepared (to allow detection of drug
degradation), 100 μL of the plasma test solution (in a plastic vial or on a sealed plate) was
incubated at 37°C for 4 h (or as long as the dialysis time). The plasma test solution was frozen
directly after the administration to prevent any degradation. Prior to LC-MS/MS analysis the
plasma and buffer sample were treated with the addition of Methanol (1:3) containing Warfarin
as internal standard to precipitate proteins. The standard curve was created using the plasma
standard. The plate is then sealed, centrifuged and the supernatant is analysed by liquid
chromatography coupled to triple quadrupole mass spectrometry (LC-MS/MS). […]
(§2) Liquid chromatography coupled to triple quadrupole mass spectrometry (LC-MS/MS). The test
(§3) compounds were optimized on a Waters Acquity UPLC XEVO TQ-S micro system (Waters Corp.)
(§4) operating in multiple reaction monitoring (MRM) mode with positive or negative electrospray
(§5) ionization. Compounds were optimized by using the QuanOptimize software (Waters Corp.).
(§6) For chromatographic separation, a C18 BEH 1.7 µm column was used, with a general gradient of
(§7) 1% to 90% of mobile phase B over a total running time of 2 min. Mobile phase A consisted of
(§8) 5% acetonitrile and 0.1% formic acid in purified water, and mobile phase B of 0.1% formic acid
(§9) in 100% acetonitrile. The flow rate was set to 0.5 ml/min and 5 µL of the sample was injected.

[3] = Metabolic stability in mouse liver microsomes; format: in vitro ADME; details: pH 7.4
Method: as §1, with “([37]). […]” for “([37]).”
The plate is then sealed, centrifuged and the supernatant is analysed by liquid
chromatography coupled to triple quadrupole mass spectrometry (LC-MS/MS).
Metabolic stability in the presence of human and animal liver microsomes. Metabolic stability
was determined in 0.5 mg/ml human or animal liver microsomes at a compound concentration
of 1 μM in 100 mM KPO4 buffer pH 7.4 in a total incubation volume of 500 μl. The reaction was
initiated by addition of 1 mM NADPH. At various incubation times, i.e. at 0, 5, 10, 20, 40 and 60
min, a sample was withdrawn from the incubation and the reaction was terminated by addition
of cold acetonitrile with warfarin as an internal standard. […]
as §2, §3, §4, §5, §6, §7, §8, §9

[4] = system: K. pneumoniae ATCC 13883; test: MIC, K. pneumoniae, with and without 50% human serum; format: cell-based
Method: (§10) Minimum inhibitory concentration (MIC) values were determined according to the Clinical Laboratory Standards Institute guidelines. Frequency of resistance was determined by plating ~5 × 10^8 bacterial cells on agar-solidified media plates containing test compound at concentrations corresponding to four times the measured solid-media MIC of the strains. Colonies were counted after 24 h, restreaked onto media containing the same concentration of compound, and the MIC remeasured against the assayed compound. Genomic DNA from isolated clones was sequenced by paired-end sequencing on an Illumina MiSeq device. Complete experimental details available in SI Appendix. […]
(§11) Minimum inhibitory concentration (MIC) determination. Broth microdilution and agar dilution
(§12) MIC assays were conducted according to CLSI guidelines (M07-2012). Appropriate inoculation
(§13) suspension density was assessed using a Sensititre Nephelometer with a Sensititre 0.5
McFarland Standard. Serum MICs were conducted in 50% heat-inactivated pooled human

[5] = system: E. coli ATCC 25922 ΔtolC efflux mutant; test: MIC, E. coli efflux mutant; format: cell-based
Method: as §10, §11, §12

[6] = in vitro; format: cell-based
Method: Minimum inhibitory concentration (MIC) determination. Broth microdilution and agar dilution MIC assays were conducted according to CLSI guidelines (M07-2012). Appropriate inoculation suspension density was assessed using a Sensititre Nephelometer with a Sensititre 0.5 McFarland Standard. Serum MICs were conducted in 50% heat-inactivated pooled human serum (Sigma-Aldrich). Serum was heated to 56 °C for one hour and then filtered using a 0.2 µm […]
Strain construction. The efflux-defective P. mirabilis strain EN1490 was constructed using EZ-Tn5 <KAN-2> Transposome mutagenesis with TypeOne Restriction Inhibitor. Approximately 3000 independent clones were screened for increased susceptibility to chloramphenicol (8 mg/L), yielding 2 independent clones with insertions in the gene tolC. […]

[7] = system: E. coli ATCC 25922; test: MIC (CLSI broth microdilution), wild-type E. coli; format: cell-based; details: Escherichia coli, ATCC25922
Method: as §10, §11, §12, §13
McFarland Standard. […]

[8] = Homo sapiens, HepG2, 72 h, read-out: HepG2 viability IC50, 72 h
[9] = Klebsiella pneumoniae, ATCC13883, read-out: MIC K. pneumoniae ATCC 13883 In 50% human serum
[10] = Klebsiella pneumoniae, ATCC13883, read-out: MIC K. pneumoniae ATCC 13883 Wild-type
[11] = read-out: MIC E. coli ATCC 25922 Wild-type
[12] = ATCC 25922 (Table S4), read-out: MIC E. coli EN0001

SMILES | IC50 [1, 8] [µM] | fraction unbound at 4 h, 10 µM [2] | microsomal CLint at 1 µM [3] [µL/min/mg] | MIC [4, 9] [µg/mL] | MIC [4, 10] [µg/mL] | MIC E. coli ATCC 25922 ΔtolC efflux mutant [5] [mg/L] | hemolysis [6] [%] | MIC [7, 11] [µg/mL] | IC50 ([1]; read-out: HepG2 viability IC50, 72 h) [µM] | MIC [7, 12] [µg/mL] | IC50 ([1]; Homo sapiens, HepG2, 72 h, read-out: HepG2 viability IC50) [µM] | MIC ([4]; Klebsiella pneumoniae, ATCC13883; read-out: MIC K. pneumoniae ATCC 13883 In 50% human serum) [µg/mL] | MIC ([4]; Klebsiella pneumoniae, ATCC13883; read-out: MIC K. pneumoniae ATCC 13883 Wild-type) [µg/mL]
CN(c1ccc(CNCCN)cc1C(=O)Nc1ccc(S(=O)(=O)N2CCN(c3cc(Cl)cc(Cl)c3)CC2)cc1)S(C)(=O)=O [EBL-3025] | 49 | 0.001 | 31 | 0.5 (≈ 0.747 µM) | 0.5 (≈ 0.747 µM) | ≤0.125 | 1.98 | 1 (≈ 1.49 µM) | – | – | – | – | –
CC(=O)N1CCc2cc(S(=O)(=O)N3CCN(c4cccc(C(F)(F)F)c4)CC3)ccc21 [AZ1, reference compound] | 22.5 | – | – | – | > 64 | 2 (≈ 4.41 µM) | 2.1 | > 64 | – | – | – | – | –
CN(c1ccccc1C(=O)Nc1ccc(S(=O)(=O)N2CCCCC2)cc1)S(C)(=O)=O [JEDI-852] | > 32 | – | – | – | > 64 | 4 (≈ 8.86 µM) | 0.03 | > 64 | > 64 | – | – | – | –
Cc1cc(C#N)nc(N2CCN(S(=O)(=O)c3ccc(NC(=O)c4cc(CN5CC(CN)C5)ccc4N(C)S(C)(=O)=O)cc3)CC2)n1 [EBL-3647] | 54 | 0.025 | < 5 | 0.25 (≈ 0.374 µM) | 0.5 (≈ 0.749 µM) | ≤0.125 | 0.13 | 2 (≈ 2.99 µM) | – | 2 (≈ 2.99 µM) | – | – | –
Cc1cc(C#N)nc(N2CCN(S(=O)(=O)c3ccc(NC(=O)c4cc(CNCCCN)ccc4N(C)S(C)(=O)=O)cc3)CC2)n1.Cl.Cl [EBL-3599] | – | 0.02 | < 5 | – | – | ≤0.125 | 0.06 | 2 | – | 2 | 55 | 0.25 | 1
Cc1cc(C#N)nc(N2CCN(S(=O)(=O)c3ccc(NC(=O)c4ccccc4N(C)S(C)(=O)=O)cc3)CC2)n1 [EBL-3339] | 29 | 0.0054 | 625 | 2 (≈ 3.51 µM) | 0.5 (≈ 0.878 µM) | ≤0.125 | 0.05 | 1 (≈ 1.76 µM) | – | – | – | – | –
CN(c1ccccc1C(=O)Nc1ccc(S(=O)(=O)N2CCN(c3cccc(C(F)(F)F)c3)CC2)cc1)S(C)(=O)=O [JEDI-1444] | > 64 | 0.001 | 126 | 32 (≈ 53.6 µM) | 2 (≈ 3.35 µM) | ≤0.125 | 0.02 | 2 (≈ 3.35 µM) | – | – | – | – | –
